The values below come from ChEMBL document CHEMBL3217675, “Diaryl ureaLDV peptidomimetics as 41integrin antagonists: synthesis, adhesion inhibition and toxicity evaluation on CCRF-CEM cell line” (Medchemcomm, 2012).

One may read the IC50 as the concentration at which inhibition is half-maximal.

Activity calls are given as the source filed them. No cut-off for these calls is given here.

Series [1] addresses T1, Integrin alpha-4/beta-1 (Homo sapiens, UniProt P05556+P13612). Put plainly: Antagonist activity at integrin alpha4beta1 receptor in human CCRF-CEM cells assessed as inhibition of cell adhesion to fibronectin after 1 hr by calcein AM staining-based fluorescence assay.
Series [2] deals with T1, Integrin alpha-4/beta-1. Put plainly: Antagonist activity at integrin alpha4beta1 receptor in human CCRF-CEM cells assessed as detachment of adherent cell from fibronectin at 1 to 500 uM after 24 to 48 hrs by MTT assay. It counts as cell-based. On the technique in general: Tetrazolium assays rely on reduction of a dye to a coloured formazan, in cell work by metabolically active cells.

Series [3] relates to CCRF-CEM. Description: Cytotoxicity against human CCRF-CEM cells assessed as cell viability at 1 to 500 uM after 24 hrs by propidium iodide staining-based flow cytometric analysis. In general terms: Flow cytometry measures light scatter and fluorescence of single cells or particles in a stream.
Series [4] deals with CCRF-CEM. Put plainly: Cytotoxicity against human CCRF-CEM cells assessed as cell viability up to 200 uM after 24 hrs by propidium iodide staining-based flow cytometric analysis.

T1 sequence (P05556 whole entry): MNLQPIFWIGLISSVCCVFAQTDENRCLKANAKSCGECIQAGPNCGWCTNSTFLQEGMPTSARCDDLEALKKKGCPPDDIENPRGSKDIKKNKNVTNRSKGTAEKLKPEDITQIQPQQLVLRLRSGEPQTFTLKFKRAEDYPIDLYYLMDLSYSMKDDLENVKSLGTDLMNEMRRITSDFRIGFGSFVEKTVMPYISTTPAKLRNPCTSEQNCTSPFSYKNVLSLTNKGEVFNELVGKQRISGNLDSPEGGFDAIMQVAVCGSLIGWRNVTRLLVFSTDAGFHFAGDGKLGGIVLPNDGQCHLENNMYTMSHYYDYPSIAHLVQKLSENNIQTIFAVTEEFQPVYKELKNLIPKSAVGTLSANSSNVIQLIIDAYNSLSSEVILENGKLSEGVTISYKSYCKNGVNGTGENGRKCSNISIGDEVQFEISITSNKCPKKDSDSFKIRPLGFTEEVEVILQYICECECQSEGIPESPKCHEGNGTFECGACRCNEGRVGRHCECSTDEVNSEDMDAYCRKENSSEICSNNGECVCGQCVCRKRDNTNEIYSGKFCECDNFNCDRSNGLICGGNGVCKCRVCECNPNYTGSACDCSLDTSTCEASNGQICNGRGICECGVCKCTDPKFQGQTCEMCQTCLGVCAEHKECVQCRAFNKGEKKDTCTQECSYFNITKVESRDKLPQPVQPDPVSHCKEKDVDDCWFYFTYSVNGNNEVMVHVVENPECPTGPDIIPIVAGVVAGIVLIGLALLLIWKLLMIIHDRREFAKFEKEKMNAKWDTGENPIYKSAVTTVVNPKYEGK
T1 sequence (P13612 whole entry): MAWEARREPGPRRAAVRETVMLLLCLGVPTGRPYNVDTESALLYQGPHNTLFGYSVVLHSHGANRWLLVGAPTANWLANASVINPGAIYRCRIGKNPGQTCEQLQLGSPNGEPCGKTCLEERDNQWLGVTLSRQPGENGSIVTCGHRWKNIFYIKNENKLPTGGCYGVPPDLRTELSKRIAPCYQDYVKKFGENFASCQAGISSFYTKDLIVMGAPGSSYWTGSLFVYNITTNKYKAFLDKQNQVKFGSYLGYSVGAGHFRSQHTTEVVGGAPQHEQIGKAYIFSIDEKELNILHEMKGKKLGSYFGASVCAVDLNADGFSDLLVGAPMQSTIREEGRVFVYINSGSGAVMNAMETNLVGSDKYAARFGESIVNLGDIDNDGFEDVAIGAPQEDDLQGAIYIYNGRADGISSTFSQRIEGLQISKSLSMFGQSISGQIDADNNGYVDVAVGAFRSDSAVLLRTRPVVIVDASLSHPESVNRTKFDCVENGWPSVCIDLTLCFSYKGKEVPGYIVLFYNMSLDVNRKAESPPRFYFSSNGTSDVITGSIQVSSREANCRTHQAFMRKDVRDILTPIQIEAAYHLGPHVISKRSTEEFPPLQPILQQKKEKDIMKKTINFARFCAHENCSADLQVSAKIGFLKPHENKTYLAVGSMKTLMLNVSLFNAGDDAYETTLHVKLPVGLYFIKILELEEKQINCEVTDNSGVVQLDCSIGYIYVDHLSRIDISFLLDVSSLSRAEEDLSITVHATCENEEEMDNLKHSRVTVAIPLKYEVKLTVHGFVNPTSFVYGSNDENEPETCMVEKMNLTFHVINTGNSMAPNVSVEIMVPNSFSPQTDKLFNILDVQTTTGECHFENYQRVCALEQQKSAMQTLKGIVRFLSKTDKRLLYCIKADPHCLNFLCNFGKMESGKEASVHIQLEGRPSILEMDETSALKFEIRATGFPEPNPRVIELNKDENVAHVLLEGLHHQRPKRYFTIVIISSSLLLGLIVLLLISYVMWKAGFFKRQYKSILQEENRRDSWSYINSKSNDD

Turning to `Cc1cccc(C)c1NC(=O)Nc1ccc(CC(=O)Nc2ccc(CCC(=O)OCc3ccccc3)c(OCC(=O)O)c2)cc1`, on Integrin alpha-4/beta-1 [1], the IC50 was 81.3 µM.

With `O=C(O)Cc1ccc(NC(=O)Nc2ccccc2C(F)(F)F)cc1`, the IC50 on Integrin alpha-4/beta-1 [1] was greater than 1000 µM.

Consider `Cc1cccc(C)c1NC(=O)Nc1ccc(CC(=O)Nc2ccc(OCC(=O)O)c(CCC(=O)OCCc3ccccc3)c2)cc1`, for which the IC50 on Integrin alpha-4/beta-1 [1] is 24.5 µM.

Regarding `Cc1cccc(C)c1NC(=O)Nc1ccc(CC(=O)Nc2ccc(OCC(=O)OC(C)(C)C)c(CCC(=O)OCc3ccccc3)c2)cc1`, the IC50 at Integrin alpha-4/beta-1 [1] is 102 µM.

`Cc1cccc(C)c1NC(=O)Nc1ccc(CC(=O)Nc2ccc(OCC(=O)O)c(CCC(=O)NCc3ccccc3)c2)cc1`: the IC50 on Integrin alpha-4/beta-1 [1] is 97.7 µM.

As for `O=C(O)CCc1cc(NC(=O)Cc2ccc(NC(=O)Nc3ccccc3C(F)(F)F)cc2)ccc1O`, the IC50 at Integrin alpha-4/beta-1 [1] was 209 µM.

As to `N=C(N)NCCC[C@H](NC(=O)CN)C(=O)NCC(=O)N[C@@H](CC(=O)O)C(=O)N[C@@H](CO)C(=O)O`, on Integrin alpha-4/beta-1 [1], the IC50 is greater than 1000 µM.

Take `O=C(O)COc1cc(NC(=O)Cc2ccc(NC(=O)Nc3ccccc3C(F)(F)F)cc2)ccc1CCC(=O)OCc1ccccc1`: on Integrin alpha-4/beta-1 [2], the result was Active. For the same molecule, the Activity result with CCRF-CEM [3] was “Non-toxic”. The IC50 on Integrin alpha-4/beta-1 [1] is 64.6 µM.

Take `Cc1cccc(C)c1NC(=O)Nc1ccc(CC(=O)Nc2ccc(CCC(=O)O)c(O)c2)cc1`: the IC50 on Integrin alpha-4/beta-1 [1] was 146 µM.

For the molecule `Cc1cccc(C)c1NC(=O)Nc1ccc(CC(=O)Nc2ccc(O)c(CCC(=O)O)c2)cc1`, the IC50 at Integrin alpha-4/beta-1 [1] is 138 µM.

On to `O=C(O)COc1ccc(NC(=O)Cc2ccc(NC(=O)Nc3ccccc3C(F)(F)F)cc2)cc1CCC(=O)OCc1ccccc1`, for which, in the series with CCRF-CEM [4], the Activity entry is listed as “Non-toxic”. For the same molecule, the IC50 at Integrin alpha-4/beta-1 [1] was 33.1 µM.

For `CC(C)(C)OC(=O)COc1cc(NC(=O)Cc2ccc(NC(=O)Nc3ccccc3C(F)(F)F)cc2)ccc1CCC(=O)O`, the IC50 at Integrin alpha-4/beta-1 [1] was 79.4 µM.

For the molecule `Cc1cccc(C)c1NC(=O)Nc1ccc(CC(=O)Nc2ccc(OCC(=O)O)c(CCC(=O)O)c2)cc1`, the IC50 at Integrin alpha-4/beta-1 [1] was 81.3 µM.

For the molecule `Cc1cccc(C)c1NC(=O)Nc1ccc(CC(=O)Nc2ccc(OCC(=O)O)c(CCC(=O)OCc3ccc(Cl)cc3)c2)cc1`, the IC50 at Integrin alpha-4/beta-1 [1] was 38.9 µM.

With `Cc1cccc(C)c1NC(=O)Nc1ccc(CC(=O)Nc2ccc(OCC(=O)O)c(CCC(=O)NCCc3ccccc3)c2)cc1`, at Integrin alpha-4/beta-1 [1], the IC50 is 106 µM.

On to `CC(C)(C)OC(=O)COc1ccc(NC(=O)Cc2ccc(NC(=O)Nc3ccccc3C(F)(F)F)cc2)cc1CCC(=O)O`, for which, on Integrin alpha-4/beta-1 [1], the half-maximal inhibitory concentration (IC50) is 151 µM.

As for `O=C(O)CCc1ccc(NC(=O)Cc2ccc(NC(=O)Nc3ccccc3C(F)(F)F)cc2)cc1O`, the IC50 on Integrin alpha-4/beta-1 [1] was greater than 500 µM.

Turning to `Cc1cccc(C)c1NC(=O)Nc1ccc(CC(=O)Nc2ccc(CCC(=O)O)c(OCC(=O)OC(C)(C)C)c2)cc1`, on Integrin alpha-4/beta-1 [1], the IC50 was 190 µM.

Consider `Cc1cccc(C)c1NC(=O)Nc1ccc(CC(=O)O)cc1`, for which the concentration for half-maximal inhibition (IC50) on Integrin alpha-4/beta-1 [1] was greater than 1000 µM.

In the case of `Cc1cccc(C)c1NC(=O)Nc1ccc(CC(=O)Nc2ccc(OCC(=O)O)c(CCC(=O)OCc3ccccc3)c2)cc1`, the outcome at Integrin alpha-4/beta-1 [2] was Active. For the same molecule, the Activity entry in the series with CCRF-CEM [3] and with CCRF-CEM [4] was “Non-toxic” throughout. Besides, the IC50 on Integrin alpha-4/beta-1 [1] was 24.3 µM.

In the case of `COC(=O)[C@@H](NC(=O)[C@H](CC(=O)O)NC(=O)[C@H](CC(C)C)NC(=O)Cc1ccc(NC(=O)Nc2ccccc2C(F)(F)F)cc1)C(C)C`, the 50% inhibitory concentration (IC50) on Integrin alpha-4/beta-1 [1] is 703 µM.
